Source: patent publication US12617779B2, “Self degradation-type CDK9 inhibitor prodrug and liposome encapsulating same” (Sumitomo Pharma Co., Ltd., priority 2021, dated 2026)
Structures can show the parent of a compound that is named as a salt.

Experiments:
[1] = tested on: EMT6 cells; assay: Drug efficacy evaluation test using tumor-bearing mice transplanted with EMT6 cells (Experimental Example 7); assay type: in vivo, BALB/c mice; conditions: liposome formulation, tail vein, 25 mg/kg and 50 mg/kg twice a week
Protocol: The liposome formulation encapsulating the compound of the present disclosure was treated and evaluated for anti-tumor effect.
The liposome formulations were prepared as follows. The liposomes encapsulating the compounds of Example 3 and Example 4 were prepared in the same manner as in Experimental Example 4, respectively. The liposome outer solution was replaced with 10 mM tartrate buffer solution/10% sucrose solution (pH 4) using Sephadex G-25 column (PD-10, manufactured by GE Healthcare), followed by concentration by an ultrafiltration filter (AmiconUltra, 100K, 15 mL, manufactured by Merck), and filtration through a 0.22 μm membrane filter.
EMT6 cells (ATCC) were intradermally transplanted into 5-week-old BALB/c mice (BALB/cAnNCrlCrlj, female, Charles River, Japan) around the ventral region at 5×10^5 cells/mouse. […] The tumor volume was measured over time from the start of administration, and the tumor volume reduction effect due to compound administration was evaluated. The tumor volume was calculated by the following formula using the short and long diameters of the tumor measured with an electronic caliper (Mitutoyo). […]
The anti-tumor effect was evaluated by comparing the control group administered with the empty liposome solution and the administration group of the compound of the present disclosure, and calculating T/C by the following formula.

[2] = Stability evaluation of liposome formulation under storage conditions (Experimental Example 5); assay type: physicochemical; conditions: liposome formulation, 5° C.
Protocol: For Example 1, Example 2, Example 5, Example 6, Example 7, Example 8, Comparative Example 7 and Comparative Example 9, the storage stability of liposome formulation was evaluated by the following method.
For the liposome formulations of Example 1, Example 2, Example 5, Example 6, Example 7, Example 8, Comparative Example 7, and Comparative Example 9, the liposome outer solution was replaced with 10% sucrose solution or 10 mM tartrate buffer solution/10% sucrose solution (pH 4) using Sephadex G-25 column (PD-10, manufactured by GE Healthcare) or a dialysis cassette (Slide-A-Lyzer G2 Dialysis Cassettes 20K MWCO, manufactured by Thermo Scientific) to remove unencapsulated compound. The liposome formulation was filtered through a 0.22 μm membrane filter, and stored at 5° C. After 0 to 18 months, the Alvocidib content in the liposome formulations of Example 1, Example 2, Example 5, Example 6, Example 7, Example 8, Comparative Example 7 and Comparative Example 9 was determined by HPLC.
The HPLC measurement conditions are as follows.

SMILES	Effect on tumor volume [1]	other results
CN1CC[C@H](c2c(OC(=O)N(C)C[C@@H]3CCCCN3)cc(O)c3c(=O)cc(-c4ccccc4Cl)oc23)[C@H](O)C1 [Example 3, 2-(2-chlorophenyl)-5-hydroxy-8-[(3S,4R)-3-hydroxy-1-methylpiperidin-4-yl]-4-oxo-4H-1-benzopyran-7-yl methyl{[(2S)-piperidin-2-yl]methyl}carbamate]	significantly inhibited the increase in tumor volume	
CN1CC[C@H](c2c(OC(=O)N(C)C[C@H]3CCCCN3)cc(O)c3c(=O)cc(-c4ccccc4Cl)oc23)[C@H](O)C1 [Example 4, 2-(2-chlorophenyl)-5-hydroxy-8-[(3S,4R)-3-hydroxy-1-methylpiperidin-4-yl]-4-oxo-4H-1-benzopyran-7-yl methyl{[(2R)-piperidin-2-yl]methyl}carbamate]	significantly inhibited the increase in tumor volume	
CCN(CC1CCCCN1)C(=O)Oc1cc(O)c2c(=O)cc(-c3ccccc3Cl)oc2c1[C@H]1CCN(C)C[C@H]1O (stereo partly drawn) [Example 7, 2-(2-chlorophenyl)-5-hydroxy-8-[(3S,4R)-3-hydroxy-1-methylpiperidin-4-yl]-4-oxo-4H-1-benzopyran-7-yl ethyl[(piperidin-2-yl)methyl]carbamate dihydrochloride]		Change of Alvocidib content in liposome formulation ([2]; after 15 months): hardly increased
CN1CC[C@H](c2c(OC(=O)N(C)CC3CCCCN3)cc(O)c3c(=O)cc(-c4ccccc4Cl)oc23)[C@H](O)C1 (stereo partly drawn) [Example 8, 2-(2-chlorophenyl)-5-hydroxy-8-[(3S,4R)-3-hydroxy-1-methylpiperidin-4-yl]-4-oxo-4H-1-benzopyran-7-yl methyl[(piperidin-2-yl)methyl]carbamate]		Change of Alvocidib content in liposome formulation ([2]; after 18 months): hardly increased
